Legend:
[1] = tested on: T1, G6PDH, hepatopancreas, 24 h anoxic (low phosphate form); assay: spectrophotometric NADPH production at […] nm; format: biochemical, Littorina littorea; details: pH 8.0, 50 mM Tris-HCl, 22 °C
T1 construct: gene G6PD; native enzyme in Sephadex G-50 filtered hepatopancreas extract of 24 h anoxic snails; low phosphate form, same gene product as P1; not purified for kinetics

[2] = tested on: T2, G6PDH, hepatopancreas, aerobic control (high phosphate form); assay: spectrophotometric NADPH production at […] nm; format: biochemical, Littorina littorea; details: pH 8.0, 50 mM Tris-HCl, 22 °C
T2 construct: gene G6PD; native enzyme in Sephadex G-50 filtered hepatopancreas extract of aerobic control snails (bought at Kowloon Market, Ottawa); serine-phosphorylated, high phosphate form; not purified for kinetics

| SMILES | Km ([1]; optimal NADP+ (1.0 mM)) [µM] | Km ([2]; optimal NADP+ (1.0 mM)) [µM] | Km ([1]; optimal G6P (4 mM)) [µM] | Km ([2]; optimal G6P (4 mM)) [µM] |
| --- | --- | --- | --- | --- |
| O=P(O)(O)OC[C@H]1OC(O)[C@H](O)[C@@H](O)[C@@H]1O (stereo partly shown) [G6P] | 60 ± 3 | 97 ± 6 |  |  |
| NC(=O)c1ccc[n+]([C@@H]2O[C@H](COP(=O)(O)OP(=O)(O)OC[C@H]3O[C@@H](n4cnc5c(N)ncnc54)[C@H](OP(=O)(O)O)[C@@H]3O)[C@@H](O)[C@H]2O)c1 [NADP^+] |  |  | 115 ± 8 | 117 ± 6 |

Source: article PMC3628605, “Glucose-6-phosphate dehydrogenase regulation in the hepatopancreas of the anoxia-tolerant marine mollusc, Littorina littorea” (PeerJ, 2013)
